Usually IC50 stands for the concentration needed to halve the response being measured.

Structures are written as SMILES. Counter-ions that a name gives are not always drawn.

In this assay the target is T1, Human V1b receptor (Homo sapiens, UniProt P47901).
T1 sequence (P47901 1-424): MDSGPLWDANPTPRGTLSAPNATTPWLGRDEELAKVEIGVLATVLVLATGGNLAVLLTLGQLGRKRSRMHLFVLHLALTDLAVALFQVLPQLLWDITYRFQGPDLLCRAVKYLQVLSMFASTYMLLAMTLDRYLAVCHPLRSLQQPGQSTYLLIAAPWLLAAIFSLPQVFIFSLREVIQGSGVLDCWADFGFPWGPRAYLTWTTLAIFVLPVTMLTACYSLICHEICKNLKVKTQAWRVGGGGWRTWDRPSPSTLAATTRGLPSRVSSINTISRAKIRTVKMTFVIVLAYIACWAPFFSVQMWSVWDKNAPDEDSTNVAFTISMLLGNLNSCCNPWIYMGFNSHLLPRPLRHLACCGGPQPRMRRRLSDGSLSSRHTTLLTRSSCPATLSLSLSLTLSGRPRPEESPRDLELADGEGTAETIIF
Briefly: Binding test for V1b receptor ([3H]AVP displacement, crude membrane preparation). Also on record: expressed in transfected cells; host or cells: 293FT cells (Invitrogen), transient expression; crude membrane preparation. Conditions: [3H]AVP 0.4 to 1 nmol/L; membranes of 293FT cells transiently expressing human V1b receptor; room temperature, 60 minutes. On the procedure:
Binding Test for V1b Receptor
Human V1b receptor was transiently expressed in 293FT cells (Invitrogen). The cells were collected and were homogenated in a 15 mmol/L tris-hydrochloric acid buffer (pH 7.4, containing 2 mmol/L magnesium chloride, 0.3 mmol/L ethylenediaminetetracetic acid, and 1 mmol/L glycol ether diaminetetraacetic acid). The resulting homogenate was centrifuged at 50,000×g at 4° C. for 20 minutes. The precipitate was resuspended in a 75 mmol/L tris-hydrochloric acid buffer (pH 7.4, containing 12.5 mmol/L magnesium chloride, 0.3 mmol/L ethylenediaminetetracetic acid, 1 mmol/L glycol ether diamine tetraacetic acid, and 250 mmol/L sucrose) to give a crude membrane preparation, which was stored at −80° C. until the binding test. In the binding test, the crude membrane preparation was diluted with a 50 mmol/L tris-hydrochloric acid buffer (pH 7.4, containing 10 mmol/L magnesium chloride and 0.1% bovine serum albumin), and test compound was serially diluted with DMSO. The diluted crude membrane preparation was incubated with each test compound (final concentration of 0.01 nmol/L to 1 μmol/L) and [^3H]AVP (final concentration: 0.4 to 1 nmol/L) at room temperature for 60 minutes. After the incubation, the mixture was suction filtered through a GF/C filter pretreated with 0.3% polyethyleneimine. The GF/C filter was dried, and a scintillator was added thereto. The radioactivity remaining on the filter was measured using TopCount (PerkinElmer Inc.). The radioactivity in the presence of 10 μmol/L of unlabeled AVP was defined as 0%, and the radioactivity in the absence of unlabeled AVP was defined as 100%. A dose-response curve was plotted from radioactivities in the presence of a test compound at various concentrations, and the 50% inhibitory concentration (IC50 value) of the compound was calculated.
For `COc1cc(-c2nn(-c3ccc(CCN4CCC(F)CC4)cc3)c(=O)n2CC(=O)NC(C)C)ccc1F` [Ca-16, 2-[3-(4-Fluoro-3-methoxyphenyl)-1-{4-[2-(4-fluoropiperidin-1-yl)ethyl]phenyl}-5-oxo-1,5-dihydro-4H-1,2,4-triazol-4-yl]-N-(propan-2-yl)acetamide trifluoroacetate], the IC50 lay within 10 to 100 nM. `COc1cc(-c2nn(-c3ccc(CCN4CCC(NC(C)=O)CC4)cc3)c(=O)n2CC(=O)NC(C)C)ccc1F` [Ca-17, 2-[1-(4-{2-[4-(Acetylamino)piperidin-1-yl]ethyl}phenyl)-3-(4-fluoro-3-methoxyphenyl)-5-oxo-1,5-dihydro-4H-1,2,4-triazol-4-yl]-N-(propan-2-yl)acetamide] registered an IC50 of 100 to 1000 nM. Then `COc1cc(-c2nn(-c3ccc(CCN4CCC(F)(F)CC4)cc3)c(=O)n2CC(=O)NC(C)C)ccc1F` [Ca-18, 2-[1-{4-[2-(4,4-Difluoropiperidin-1-yl)ethyl]phenyl}-3-(4-fluoro-3-methoxyphenyl)-5-oxo-1,5-dihydro-4H-1,2,4-triazol-4-yl]-N-(propan-2-yl)acetamide trifluoroacetate], with 10 to 100 nM. On to `COc1cc(-c2nn(-c3ccc(CCN4CCC(C(F)(F)F)CC4)cc3)c(=O)n2CC(=O)NC(C)C)ccc1F` [Ca-19, 2-[3-(4-Fluoro-3-methoxyphenyl)-5-oxo-1-(4-{2-[4-(trifluoromethyl)piperidin-1-yl]ethyl}phenyl)-1,5-dihydro-4H-1,2,4-triazol-4-yl]-N-(propan-2-yl)acetamide trifluoroacetate], for which the IC50 lay within 100 to 1000 nM. Next, `COc1cc(-c2nn(-c3ccc(CCN4C[C@@H](C)O[C@@H](C)C4)cc3)c(=O)n2CC(=O)NC(C)C)ccc1F` [Ca-20, 2-[1-(4-{2-[(2R,6S)-2,6-Dimethylmorpholin-4-yl]ethyl}phenyl)-3-(4-fluoro-3-methoxyphenyl)-5-oxo-1,5-dihydro-4H-1,2,4-triazol-4-yl]-N-(propan-2-yl)acetamide]: 10 to 100 nM; `COc1cc(-c2nn(-c3ccc(CCN4C(C)COCC4C)cc3)c(=O)n2CC(=O)NC(C)C)ccc1F` (stereo not drawn) [Ca-21, 2-[1-{4-[2-(3,5-Dimethylmorpholin-4-yl)ethyl]phenyl}-3-(4-fluoro-3-methoxyphenyl)-5-oxo-1,5-dihydro-4H-1,2,4-triazol-4-yl]-N-(propan-2-yl)acetamide trifluoroacetate]: 10 to 100 nM; `COc1cc(-c2nn(-c3ccc(CCN4CCOCC4C)cc3)c(=O)n2CC(=O)NC(C)C)ccc1F` (stereo not drawn) [Ca-22, 2-[3-(4-Fluoro-3-methoxyphenyl)-1-{4-[2-(3-methylmorpholin-4-yl)ethyl]phenyl}-5-oxo-1,5-dihydro-4H-1,2,4-triazol-4-yl]-N-(propan-2-yl)acetamide]: 10 to 100 nM. Then `CCC1COCCN1CCc1ccc(-n2nc(-c3ccc(F)c(OC)c3)n(CC(=O)NC(C)C)c2=O)cc1` (stereo not drawn) [Ca-23, 2-[1-{4-[2-(3-Ethylmorpholin-4-yl)ethyl]phenyl}-3-(4-fluoro-3-methoxyphenyl)-5-oxo-1,5-dihydro-4H-1,2,4-triazol-4-yl]-N-(propan-2-yl)acetamide], with 10 to 100 nM; and `COc1cc(-c2nn(-c3ccc(CCN4CCCC4)cc3)c(=O)n2CC(=O)NC(C)C)ccc1F` [Ca-24, 2-[3-(4-Fluoro-3-methoxyphenyl)-5-oxo-1-{4-[2-(pyrrolidin-1-yl)ethyl]phenyl}-1,5-dihydro-4H-1,2,4-triazol-4-yl]-N-(propan-2-yl)acetamide formate], with 10 to 100 nM. Then `COc1cc(-c2nn(-c3ccc(CCN4CCN(C)CC4)cc3)c(=O)n2CC(=O)NC(C)C)ccc1F` [Ca-25, 2-[3-(4-Fluoro-3-methoxyphenyl)-1-{4-[2-(4-methylpiperazin-1-yl)ethyl]phenyl}-5-oxo-1,5-dihydro-4H-1,2,4-triazol-4-yl]-N-(propan-2-yl)acetamide trifluoroacetate], with 100 to 1000 nM; and `COc1cc(-c2nn(-c3ccc(CCN4CCN(C(C)=O)CC4)cc3)c(=O)n2CC(=O)NC(C)C)ccc1F` [Ca-26, 2-[1-{4-[2-(4-Acetylpiperazin-1-yl)ethyl]phenyl}-3-(4-fluoro-3-methoxyphenyl)-5-oxo-1,5-dihydro-4H-1,2,4-triazol-4-yl]-N-(propan-2-yl)acetamide trifluoroacetate], with 100 to 1000 nM.

Consider `COc1cc(-c2nn(-c3ccc(CCN4CCC(C)(O)CC4)cc3)c(=O)n2CC(=O)NC(C)C)ccc1F` [Ca-27, 2-[3-(4-Fluoro-3-methoxyphenyl)-1-{4-[2-(4-hydroxy4-methylpiperidin-1-yl)ethyl]phenyl}-5-oxo-1,5-dihydro-4H-1,2,4-triazol-4-yl]-N-(propan-2-yl)acetamide trifluoroacetate], for which the concentration for half-maximal inhibition (IC50) is 100 to 1000 nM.

As to `COc1cc(-c2nn(-c3ccc(CCN4C5CCC4CC(O)C5)cn3)c(=O)n2CC(=O)NC(C)C)ccc1F` (stereo not drawn) [Cb-4, 2-[3-(4-Fluoro-3-methoxyphenyl)-1-{5-[2-(3-hydroxy-8-azabicyclo[3.2.1]oct-8-yl)ethyl]pyridin-2-yl}-5-oxo-1,5-dihydro-4H-1,2,4-triazol-4-yl]-N-(propan-2-yl)acetamide], the IC50 came out at 8.6 nM. Next, `COc1cc(-c2nn(-c3ccc(CCN4C5CCC4COC5)cn3)c(=O)n2CC(=O)NC(C)C)ccc1F` [Cb-5, 2-[3-(4-Fluoro-3-methoxyphenyl)-1-{5-[2-(3-oxa-8-azabicyclo[3.2.1]oct-8-yl)ethyl]pyridin-2-yl}-5-oxo-1,5-dihydro-4H-1,2,4-triazol-4-yl]-N-(propan-2-yl)acetamide]: 16 nM.

For `COc1cc(-c2nn(-c3ncc(CCN4CCOCC4)cn3)c(=O)n2CC(=O)NC(C)C)ccc1F` [Cd-1, 2-[3-(4-Fluoro-3-methoxyphenyl)-1-{5-[2-(morpholin-4-yl)ethyl]pyrimidin-2-yl}-5-oxo-1,5-dihydro-4H-1,2,4-triazol-4-yl]-N-(propan-2-yl)acetamide], the IC50 worked out at 166 nM. In turn, `COc1cc(-c2nn(-c3ccc(CC(C)N4C5CCC4COC5)cc3)c(=O)n2CC(=O)NC(C)C)ccc1F` (stereo not drawn) [Cd-2, 2-[3-(4-Fluoro-3-methoxyphenyl)-1-{4-[2-(3-oxa-8-azabicyclo[3.2.1]oct-8-yl)propyl]phenyl}-5-oxo-1,5-dihydro-4H-1,2,4-triazol-4-yl]-N-(propan-2-yl)acetamide] gave a half-inhibitory concentration (IC50) of 0.51 nM. Then `COc1cc(-c2nn(-c3ccc(CC(C)N4C5CCC4COC5)cn3)c(=O)n2CC(=O)NC(C)C)ccc1F` (stereo not drawn) [Cd-3, 2-[3-(4-Fluoro-3-methoxyphenyl)-1-{5-[2-(3-oxa-8-azabicyclo[3.2.1]oct-8-yl)propyl]pyridin-2-yl}-5-oxo-1,5-dihydro-4H-1,2,4-triazol-4-yl]-N-(propan-2-yl)acetamide], with 0.55 nM; and `COc1cc(-c2nn(-c3ccc(CN4CCN(C)CC4)cc3)c(=O)n2CC(=O)NC(C)C)ccc1F` [Cd-4, 2-[3-(4-Fluoro-3-methoxyphenyl)-1-{4-[(4-methylpiperazin-1-yl)methyl]phenyl}-5-oxo-1,5-dihydro-4H-1,2,4-triazol-4-yl]-N-(propan-2-yl)acetamide], with 863 nM; and `CC(C)NC(=O)Cn1c(-c2ccc(F)c(Cl)c2)nn(-c2ccc(CCN3CCCCC3)cc2)c1=O` [Da-1, 2-[3-(3-Chloro-4-fluorophenyl)-5-oxo-1-{4-[2-(piperidin-1-yl)ethyl]phenyl}-1,5-dihydro-4H-1,2,4-triazol-4-yl]-N-(propan-2-yl)acetamide], with 17 nM.

As to `CC(C)NC(=O)Cn1c(-c2ccc(F)c(Cl)c2)nn(-c2ccc(CCN3CC4(COC4)C3)cc2)c1=O` [Da-3, 2-[3-(3-Chloro-4-fluorophenyl)-1-{4-[2-(2-oxa-6-azaspiro[3.3]hept-6-yl)ethyl]phenyl}-5-oxo-1,5-dihydro-4H-1,2,4-triazol-4-yl]-N-(propan-2-yl)acetamide], the IC50 amounted to 32 nM. Next, `CC(C)NC(=O)Cn1c(-c2ccc(F)c(Cl)c2)nn(-c2ccc(CCN3CCCOCC3)cc2)c1=O` [Da-4, 2-[3-(3-Chloro-4-fluorophenyl)-1-{4-[2-(1,4-oxazepan-4-yl)ethyl]phenyl}-5-oxo-1,5-dihydro-4H-1,2,4-triazol-4-yl]-N-(propan-2-yl)acetamide]: 12 nM.
